“And” between values parts separate entries of the source, which are not always exact repeats. Equal entries are not always repeated.
What was measured:
[1] = test system: Aonidiella aurantii; assay: Field control of A. aurantii in citrus crops, percentage of damaged fruit; assay type: in vivo; settings: for EFFECTIVE CONTROL [% DAMAGE]: orange
[2] = test system: Aonidiella aurantii males; settings: within natural semiochemical matrix; Vacas et al. 2017; cited from earlier work
[3] = test system: Aonidiella aurantii; assay: Field control of A. aurantii in citrus crops, percentage of damaged fruit; assay type: in vivo; settings: 15.00 μg/diffuser/day
Protocol: With the final effective flow value (15 μg/diffuser/day), the assays for ascertaining the effective flow rate resulting from the combinations of the final effective flow of 15 μg/diffuser/day with an effective number of devices of 500 diffusers/ha, 380 diffusers/ha, 250 diffusers/ha, 100 diffusers/ha and 50 diffusers/ha continued in 2017, in addition to the result of chemical controls carried out using the products currently authorized to combat this pest. The effectiveness of the treatments was evaluated in accordance with the percentage of damaged fruit by means of sampling prior to picking the fruit. In order to determine said percentage, the number of shields of A. aurantii females per fruit was counted using the following protocol: 20 trees were selected per hectare and 10 fruits were taken from each tree: 8 from the exterior (from all the orientations and randomly) and 2 from the interior (randomly). A fruit with more than 10 shields was considered damaged. In the case of the treatment based on chemical control, a surface area equivalent to the other treatments was evaluated.

[4] = test system: Aonidiella aurantii males; assay: Field trap test: effective flow attracting A. aurantii males within the interlinked semiochemical matrix; assay type: in vivo; settings: for EFFECTIVE FLOW: orange
Protocol: Experiments for obtaining an effective flow to combat the diaspidid Aonidiella aurantii were carried out on citrus crops located in the province of Huelva in 2015 and 2016.
For these assays, four plots of different varieties of citrus trees with surface areas comprised between 2 and 10 hectares were initially taken.
An artificial semiochemical matrix 1 was generated therein by arranging 500 diffusers/ha, with a substantially constant initial emission flow-1 of 300 μg/diffuser/day (optimal flow according to the state of the art) of (3S,6RS)-3-methyl-6-isopropenyl-9-decen-1-yl acetate.
In the interior of these artificial semiochemical matrices, two blocks of seven diffusers with different emission flows were installed in each assay. These blocks were separated by a distance of more than 80 meters therebetween and the diffusers were separated 25 meters intra-block. Each block included: • (a) a glued trap, without any kind of semiochemical emission; • (b) a glued trap, with a diffuser with a substantially constant emission flow of 25 μg/day of (3S,6RS)-3-methyl-6-isopropenyl-9-decen-1-yl acetate. • (c) a glued trap, with a diffuser with a substantially constant emission flow of 50 μg/day of (3S,6RS)-3-methyl-6-isopropenyl-9-decen-1-yl acetate. • (d) a glued trap, with a diffuser with a substantially constant emission flow of 100 μg/day of (3S,6RS)-3-methyl-6-isopropenyl-9-decen-1-yl acetate. • (e) a glued trap with a diffuser with a substantially constant emission flow of 200 μg/day of (3S,6RS)-3-methyl-6-isopropenyl-9-decen-1-yl acetate. • (f) a glued trap with a diffuser with a substantially constant emission flow of 300 μg/day of (3S,6RS)-3-methyl-6-isopropenyl-9-decen-1-yl acetate (initial flow-1). • (g) a glued trap with a diffuser with a substantially constant emission flow of 400 μg/day of (3S,6RS)-3-methyl-6-isopropenyl-9-decen-1-yl acetate.
All the traps were placed in the trees at a height of 1.5 m. The traps used were of the 9.5×15 cm white sticky sheet type. Diffusers with a substantially constant emission flow were fixed to the center of the sticky sheet. Replacement of the sheets, intra-block rotation of the traps and reading of the male captures was performed on a weekly basis. Upon completing the first rotation of the traps, it was observed that those whose emission corresponded to the flow of […] had the highest number of captured males and not the traps with an initial flow-1 of 300 μg/diffuser/day (FIG. 1).
Subsequently, a new iteration for obtaining the effective flow-2 within the new interlinked matrix was initiated, to which end the previous diffusers were withdrawn and a new artificial semiochemical matrix-2 was generated through the installation of 500 diffusers/ha, with a substantially constant initial emission flow-2 equal to 25 μg/day (effective flow-1) of (3S,6RS)-3-methyl-6-isopropenyl-9-decen-1-yl acetate.
Two blocks of seven diffusers were installed in the interior of this new interlinked semiochemical matrix in each assay. These blocks were separated by a distance of more than 80 meters therebetween and the diffusers were separated 25 meters intra-block. […]

[5] = test system: Planococcus ficus; assay: Field control of P. ficus in table grape crops, percentage of bunches with presence of pest, molasses or fumigines; assay type: in vivo; settings: table grapes
Protocol: With the final definitive effective flow value (5-10 μg/diffuser/day), the assays for ascertaining the effective flow rate resulting from the combinations of the final effective flow with an effective number of devices of 1,000 diffusers/ha, 500 diffusers/ha, 250 diffusers/ha and 100 diffusers/ha continued in 2016 and 2017. Since the plots where the assays were carried out were used for organic or environmentally friendly farming, it was not possible to establish a chemical control for comparing the results of the effective control of Planococcus ficus. The effectiveness of the treatments was assessed in accordance with the percentage of bunches with presence of Planococcus ficus, molasses or fumigines by sampling prior to picking the grapes. In order to determine said percentage, 20 vines per hectare were taken randomly and 20 bunches were inspected in each, of which the 10 bunches closest to the center of the vine and the 10 bunches farthest from the vine were chosen, covering the entire vine. Both bunches in contact with primary branches were taken and isolated without touching any other branch. A total of […].

[6] = test system: Planococcus ficus males; assay: Field trap test: effective flow attracting P. ficus males within the interlinked semiochemical matrix; assay type: in vivo; settings: for EFFECTIVE FLOW: table grapes
Protocol: The response of the males of the species P. ficus, at different emission flows of senecioate S-lavandulyl, was evaluated in various field tests carried out on table grape crops located in the Municipal District of […] de Murcia and Totana, both municipalities in the Region of Murcia in 2015, 2016 and 2017. For these assays, four plots of different varieties of table grapes with surface areas comprised between 1 and 4 hectares were initially taken. An artificial semiochemical matrix-1 was generated therein through the installation of 1,000 diffusers/ha, with a substantially constant emission flow of 300 μg/day of S-lavandulyl senecioate (initial flow-1). The choice of this initial emission flow is based on the average emission of commercial diffusers for controlling this pest. In the interior of these artificial semiochemical matrices, two blocks of six diffusers with different emission flows were installed in each assay. These blocks were separated by a distance of more than 80 meters therebetween and the diffusers were separated 25 meters intra-block. Each block included: • (a) a glued trap, without any kind of semiochemical emission. • (b) a glued trap, with a substantially constant emission flow of 10 μg/day of S-lavandulyl senecioate. • (c) a glued trap, with a diffuser with a substantially constant emission flow of 50 μg/day of S-lavandulyl senecioate. • (d) a glued trap, with a diffuser with a substantially constant emission flow of 100 μg/day of S-lavandulyl senecioate. • (e) a glued trap with a diffuser with a substantially constant emission flow of 200 μg/day of S-lavandulyl senecioate. • (f) a glued trap with a diffuser with a substantially constant emission flow of 300 μg/day of S-lavandulyl senecioate (initial flow-1). All the traps were placed in the trees at a height of 2 m. The traps used were of the 9.5×15 cm white sticky sheet type. Diffusers with a substantially constant emission flow were fixed to the center of the sticky sheet. Replacement of the sheets, intra-block rotation of the traps and reading of the male captures was performed on a weekly basis. Upon completing the first rotation of the traps it was observed that those whose emission corresponded to the emission flow of […] (effective flow-1) achieved the highest number of captures within the interlinked semiochemical matrix (FIG. 4). Next, a new iteration for obtaining the effective flow-2 within the new interlinked matrix was initiated, to which end the previous diffusers were withdrawn and a new artificial semiochemical matrix-2 was generated through the installation of 1,000 diffusers/ha, with a substantially constant emission flow of 10 μg/day (effective flow-1) of S-lavandulyl senecioate. Two blocks of six diffusers were installed in the interior of this new interlinked semiochemical matrix in each assay. These blocks were separated by a distance of more than 80 meters therebetween and the diffusers were separated 25 meters intra-block. Each block included: • (a) a glued trap, without any kind of semiochemical emission; • (b) a glued trap, with a diffuser with a substantially constant emission flow of 0.1 μg/day of S-lavandulyl senecioate. • (c) a glued trap, with a diffuser with a substantially constant emission flow of 5 μg/day of S-lavandulyl senecioate. • (d) a glued trap, with a diffuser with a substantially constant emission flow of 10 μg/day of S-lavandulyl senecioate. • (e) a glued trap with a diffuser with a substantially constant emission flow of 15 μg/day of S-lavandulyl senecioate. • (f) a glued trap with a diffuser with a substantially constant emission flow of 25 μg/day of S-lavandulyl senecioate. • (g) a glued trap with a diffuser with a substantially constant emission flow of 50 μg/day of S-lavandulyl senecioate. All the traps were placed in the trees at a height of 2 m. The traps used were of the 9.5×15 cm white sticky sheet type. The diffusers with a substantially constant emission flow were fixed to the center of the sticky sheet. […]

With `C=CCCC(CC[C@H](C)CCOC(C)=O)C(=C)C` (mixture of isomers) [(3S,6RS)-3-methyl-6-isopropenyl-9-decen-1-yl acetate] the “effective flow rate value determined within the interlinked semiochemical matrix after successive iterations” value ([1]; 5 μg/day at 500 emission points per hectare) was 2.5 mg per hectare and day, the “EFFECTIVE CONTROL [% DAMAGE]” value ([1]; 15.00 μg/diffuser/day, 380 diff/Ha, 5.70 mg/Ha/day, 2016 El Campillo-Huelva) was 1.70% and 0.70% and 0.60% and the “flow rate corresponding to the optimal flow according to the state of the art” value ([1]; 300 μg/day at 500 emission points per hectare) was 150 mg per hectare and day. The “EFFECTIVE CONTROL [% DAMAGE]” value ([1]; matrix 25.00 μg/diffuser/day, 500 diff/Ha, 12.50 mg/Ha/day, 2016 Nerva Huelva) was 7.30% and 7.50% and 8.00%, the “optimal flow according to the state of the art” value [2] was 300 μg/diffuser/day and the “EFFECTIVE CONTROL [% DAMAGE]” value ([3]; 50 diff/Ha, 0.75 mg/Ha/day, 2017 Serra-Valencia, orange) was 3.30% and 4.00%. The “EFFECTIVE CONTROL [% DAMAGE]” value ([3]; 100 diff/Ha, 1.50 mg/Ha/day, 2017 Serra-Valencia, orange) was 5.10% and 3.80%, the “EFFECTIVE CONTROL [% DAMAGE]” value ([3]; 250 diff/Ha, 3.75 mg/Ha/day, 2017 Monserrat-Valencia, mandarine) was 4.20% and the “EFFECTIVE CONTROL [% DAMAGE]” value ([3]; 250 diff/Ha, 3.75 mg/Ha/day, 2017 Monserrat-Valencia, orange) was 3.00%. For the same compound, the “EFFECTIVE CONTROL [% DAMAGE]” value ([3]; 250 diff/Ha, 3.75 mg/Ha/day, 2017 Picasent-Valencia, mandarine) was 1.90%, the “EFFECTIVE FLOW” value ([4]; 1st iteration, artificial semiochemical matrix 300.00 μg/diffuser/day, 500 diff/Ha, 2015 Rio Tinto-Huelva) was 25.00 μg/diffuser/day and the “EFFECTIVE FLOW” value ([4]; 2nd iteration, artificial semiochemical matrix 25.00 μg/diffuser/day, 500 diff/Ha, 2016 Nerva Huelva) was 15.00 μg/diffuser/day. For the same compound, the “EFFECTIVE FLOW” value ([4]; 3rd iteration, artificial semiochemical matrix 15.00 μg/diffuser/day, 380 diff/Ha, 2016 El Campillo-Huelva) was 15.00 μg/diffuser/day, the emission flow with the highest number of captured males (effective flow-1) ([4]; first rotation, matrix-1 of 500 diffusers/ha at 300 μg/diffuser/day, FIG. 1) was 25 µg/diffuser/day and the emission flow with higher number of captures (effective flow-2) ([4]; matrix-2 of 500 diffusers/ha at 25 μg/day, FIG. 2) was 15 µg/day. For the same compound, the final effective flow ([4]; third iteration, matrix of 500 diffusers/ha at 15 μg/day, FIG. 3) was 15 μg/diffuser/day.

With `C=C(C)[C@H](CC=C(C)C)COC(=O)C=C(C)C` [S-lavandulyl senecioate] the “EFFECTIVE CONTROL [% DAMAGE]” value ([5]; 5 μg/diffuser/day, 100 diff/Ha, 0.50 mg/Ha/day, 2017 Totana-Murcia) was 4.50%, the “EFFECTIVE CONTROL [% DAMAGE]” value ([5]; 5 μg/diffuser/day, 250 diff/Ha, 1.25 mg/Ha/day, 2017 Totana-Murcia) was 1.80% and the “EFFECTIVE CONTROL [% DAMAGE]” value ([5]; 5.00 μg/diffuser/day, 500 diff/Ha, 2.50 mg/Ha/day, 2017 Alhama de Murcia) was 0.80% and 1.40%. The “EFFECTIVE CONTROL [% DAMAGE]” value ([5]; 5.00 μg/diffuser/day, 1,000 diff/Ha, 5.00 mg/Ha/day, 2017 Alhama de Murcia) was 2.30% and 0.00%, the “EFFECTIVE CONTROL [% DAMAGE]” value ([5]; 10 μg/diffuser/day, 100 diff/Ha, 1.00 mg/Ha/day, 2017 Totana-Murcia) was 3.00% and the “EFFECTIVE CONTROL [% DAMAGE]” value ([5]; 10 μg/diffuser/day, 250 diff/Ha, 2.50 mg/Ha/day, 2017 Totana-Murcia) was 2.90%. For the same compound, the “EFFECTIVE CONTROL [% DAMAGE]” value ([5]; 10.00 μg/diffuser/day, 500 diff/Ha, 5.00 mg/Ha/day, 2016 Alhama de Murcia) was 0%, the “EFFECTIVE CONTROL [% DAMAGE]” value ([5]; 10.00 μg/diffuser/day, 1,000 diff/Ha, 10.00 mg/Ha/day, 2016 Alhama de Murcia) was 1.20% and 0.90% and 3.70% and the “EFFECTIVE FLOW” value ([6]; 1st iteration, artificial semiochemical matrix 300.00 μg/diffuser/day, 1,000 diff/Ha, 2015 Alhama de Murcia) was 10.00 μg/diffuser/day. The “EFFECTIVE FLOW” value ([6]; 2nd iteration, artificial semiochemical matrix 10.00 μg/diffuser/day, 1,000 diff/Ha, 2016 Alhama de Murcia) was 10.00 μg/diffuser/day, the “EFFECTIVE FLOW” value ([6]; 3rd iteration, artificial semiochemical matrix 5.00 μg/diffuser/day, 1,000 diff/Ha, 2017 Alhama de Murcia) was 5.00 μg/diffuser/day and the “EFFECTIVE FLOW” value ([6]; 3rd iteration, artificial semiochemical matrix 10.00 μg/diffuser/day, 500 diff/Ha, 2016 Alhama de Murcia) was 10.00 μg/diffuser/day. For the same compound, the “final definitive effective flow value” ([6]; after second iteration) was 5-10 μg/diffuser/day, the emission flow with the highest number of captures (effective flow-1) ([6]; matrix-1 of 1,000 diffusers/ha at 300 μg/day, FIG. 4) was 10 µg/day and the “flows with the highest number of male captures” value ([6]; matrix-2 of 1,000 diffusers/ha at 10 μg/day, FIG. 5) was 5 µg/day and 10 µg/day.
